In general, inhibition refers to the relative decrease from the control value, in per cent.

Inhibition data for 30 compounds are collected here from patent US8765773B2, “Substituted hydroxamic acids and uses thereof” (Millennium Pharmaceuticals, Inc., priority 2010, dated 2014).

The first assay concerns the target T1, purified human HDAC6 (Homo sapiens, UniProt Q9UBN7).
T1 construct: purchased BPS Bioscience 5006
T1 sequence (Q9UBN7 1-1215): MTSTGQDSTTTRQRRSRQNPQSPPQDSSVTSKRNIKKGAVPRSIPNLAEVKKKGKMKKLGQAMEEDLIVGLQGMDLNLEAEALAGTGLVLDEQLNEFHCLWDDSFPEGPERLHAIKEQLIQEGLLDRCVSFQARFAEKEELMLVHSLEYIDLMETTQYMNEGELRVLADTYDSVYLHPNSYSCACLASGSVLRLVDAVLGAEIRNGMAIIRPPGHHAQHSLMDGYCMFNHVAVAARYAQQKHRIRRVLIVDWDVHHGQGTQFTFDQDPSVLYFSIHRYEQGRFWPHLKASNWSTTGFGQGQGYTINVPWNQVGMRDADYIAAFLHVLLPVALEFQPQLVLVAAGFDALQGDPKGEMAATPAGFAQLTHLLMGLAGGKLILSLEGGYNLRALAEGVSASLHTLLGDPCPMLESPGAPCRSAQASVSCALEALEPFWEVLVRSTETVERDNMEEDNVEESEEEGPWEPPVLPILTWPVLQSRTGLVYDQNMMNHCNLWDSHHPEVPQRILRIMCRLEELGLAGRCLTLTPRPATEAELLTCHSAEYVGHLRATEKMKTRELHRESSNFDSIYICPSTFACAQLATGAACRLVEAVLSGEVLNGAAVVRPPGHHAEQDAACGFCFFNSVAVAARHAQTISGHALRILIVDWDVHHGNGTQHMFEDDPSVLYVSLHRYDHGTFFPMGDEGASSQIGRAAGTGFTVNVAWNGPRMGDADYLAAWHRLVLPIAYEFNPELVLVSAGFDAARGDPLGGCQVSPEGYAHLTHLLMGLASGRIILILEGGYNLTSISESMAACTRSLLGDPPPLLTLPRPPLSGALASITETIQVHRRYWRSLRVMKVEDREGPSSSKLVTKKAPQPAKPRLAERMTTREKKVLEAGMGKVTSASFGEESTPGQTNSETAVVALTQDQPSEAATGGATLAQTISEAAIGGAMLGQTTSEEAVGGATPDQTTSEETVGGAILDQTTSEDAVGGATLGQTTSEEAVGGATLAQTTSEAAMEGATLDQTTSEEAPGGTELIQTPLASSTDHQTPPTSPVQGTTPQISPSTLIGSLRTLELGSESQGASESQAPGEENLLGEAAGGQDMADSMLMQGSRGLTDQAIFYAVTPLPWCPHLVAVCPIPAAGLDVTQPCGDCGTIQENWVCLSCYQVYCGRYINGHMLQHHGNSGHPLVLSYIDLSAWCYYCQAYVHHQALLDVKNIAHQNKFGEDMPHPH
The assay can be described thus: HDAC6 Enzyme Assay. In kind it is biochemical. Particulars: compound concentration 0.37 μM, read-out: Percent Inhibition. A digest of the protocol:
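Readout is AMC fluorescence (Ex 340 nm, Em 460 nm) after trypsin cleavage of the deacetylated Ac-Arg-Gly-Lys(Ac)-AMC product. Reaction: purified human HDAC6, compound or vehicle, 1 hour, 30° C, quenched by trichostatin A. Single-concentration percent inhibition or IC50 calculated versus DMSO-treated samples.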
In the case of `COc1cccc(-c2cccc(Cn3cnc4ccc(C(=O)NO)cc4c3=O)c2)c1` [Compound I-281, N-hydroxy-3-[(3′-methoxybiphenyl-3-yl)methyl]-4-oxo-3,4-dihydroquinazoline-6-carboxamide], the inhibition at 0.37 µM was determined as 90.8%.
The same measure, in the same setting: the figure for `O=C(NO)c1ccc2ncn(CCc3cccc(-c4cccc(C(=O)NC5CC5)c4)c3)c(=O)c2c1` [Compound I-291, 3-(2-{3′-[(cyclopropylamino)carbonyl]biphenyl-3-yl}ethyl)-N-hydroxy-4-oxo-3,4-dihydroquinazoline-6-carboxamide] is 89.6%; for `O=C(NO)c1ccc2c(Br)cn(Cc3ccccc3)c(=O)c2c1` [Compound I-292, 2-benzyl-4-bromo-N-hydroxy-1-oxo-1,2-dihydroisoquinoline-7-carboxamide] it is 82.8%; for `O=C(NO)c1ccc2ccn(CCC(c3ccc(Cl)cc3)c3ccc(Cl)cc3)c(=O)c2c1` [Compound I-293, 2-[3,3-bis(4-chlorophenyl)propyl]-N-hydroxy-1-oxo-1,2-dihydroisoquinoline-7-carboxamide] it is 91.5%.
Consider `CC(C)NCCn1cnc2ccc(C(=O)NO)cc2c1=O` [Compound I-294, N-hydroxy-3-[2-(isopropylamino)ethyl]-4-oxo-3,4-dihydroquinazoline-6-carboxamide], for which the inhibition at 0.37 µM was found to be 56%.
On to `O=C(NO)c1ccc2ncn(CCc3cccc(-c4ccc(C(F)(F)F)cc4)c3)c(=O)c2c1` [Compound I-295, N-hydroxy-4-oxo-3-{2-[4′-(trifluoromethyl)biphenyl-3-yl]ethyl}-3,4-dihydroquinazoline-6-carboxamide], for which the inhibition at 0.37 µM came out at 72.5%.
The same measure, in the same setting: in the case of `Cc1ccccc1-c1cccc(CCn2cnc3ccc(C(=O)NO)cc3c2=O)c1` [Compound I-296, N-hydroxy-3-[2-(2′-methylbiphenyl-3-yl)ethyl]-4-oxo-3,4-dihydroquinazoline-6-carboxamide] it was 94.2%; in that of `CC(C)c1ccc(-c2cccc(CCn3cnc4ccc(C(=O)NO)cc4c3=O)c2)cc1` [Compound I-297, N-hydroxy-3-[2-(4′-isopropylbiphenyl-3-yl)ethyl]-4-oxo-3,4-dihydroquinazoline-6-carboxamide], 61.5%.
On the same count and under the same terms, the figure for `O=C(NO)c1ccc2ccn(-c3ccccc3Cl)c(=O)c2c1` [Compound I-298, 2-(2-chlorophenyl)-N-hydroxy-1-oxo-1,2-dihydroisoquinoline-7-carboxamide] is 94.6%; for `O=C(NO)c1ccc2ncn(CCc3cccc(-c4ccc(S(=O)(=O)N5CCCCC5)cc4)c3)c(=O)c2c1` [Compound I-299, N-hydroxy-4-oxo-3-{2-[4′-(piperidin-1-ylsulfonyl)biphenyl-3-yl]ethyl}-3,4-dihydroquinazoline-6-carboxamide] it is 90.6%.
`O=C(NO)c1ccc2ncn(CCc3cccc(-c4ccc(F)cc4)c3)c(=O)c2c1` [Compound I-300, 3-[2-(4′-fluorobiphenyl-3-yl)ethyl]-N-hydroxy-4-oxo-3,4-dihydroquinazoline-6-carboxamide]: the inhibition at 0.37 µM came to 91.7%.
On the same count and under the same terms, the figure for `Cc1ccc(-c2cccc(CCn3cnc4ccc(C(=O)NO)cc4c3=O)c2)cc1` [Compound I-301, N-hydroxy-3-[2-(4′-methylbiphenyl-3-yl)ethyl]-4-oxo-3,4-dihydroquinazoline-6-carboxamide] is 88.1%; for `O=C(NO)c1ccc2ncn(CCc3cccc(-c4cc5ccccc5s4)c3)c(=O)c2c1` [Compound I-302, 3-{2-[3-(1-benzothien-2-yl)phenyl]ethyl}-N-hydroxy-4-oxo-3,4-dihydroquinazoline-6-carboxamide] it is 83.5%.
In the case of `COc1ccc(-c2cccc(CCn3cnc4ccc(C(=O)NO)cc4c3=O)c2)cc1` [Compound I-303, N-hydroxy-3-[2-(4′-methoxybiphenyl-3-yl)ethyl]-4-oxo-3,4-dihydroquinazoline-6-carboxamide], the inhibition at 0.37 µM was 93.3%.
Same read-out and setting: the figure for `Cc1cccc(-c2cccc(CCn3cnc4ccc(C(=O)NO)cc4c3=O)c2)c1` [Compound I-304, N-hydroxy-3-[2-(3′-methylbiphenyl-3-yl)ethyl]-4-oxo-3,4-dihydroquinazoline-6-carboxamide] is 90.9%; for `O=C(NO)c1ccc2ccn(Cc3ccc(-n4cccc4)cc3)c(=O)c2c1` [Compound I-305, N-hydroxy-1-oxo-2-[4-(1H-pyrrol-1-yl)benzyl]-1,2-dihydroisoquinoline-7-carboxamide] it is 99%.

The same assay, now with this note: compound concentration 0.412 μM, read-out: Percent Inhibition.
On to `CCOCCn1cnc2cc(C(=O)NO)ccc2c1=O` [Compound I-276, 3-(2-ethoxyethyl)-N-hydroxy-4-oxo-3,4-dihydroquinazoline-7-carboxamide], for which the inhibition at 0.412 µM is 88.1%.
Still for that read-out and setting: in the case of `O=C(NO)c1ccc2ccn(CCN3CCCCC3)c(=O)c2c1` [Compound I-277, N-hydroxy-1-oxo-2-(2-piperidin-1-ylethyl)-1,2-dihydroisoquinoline-7-carboxamide] it was 71.2%.
The same measure, in the same setting: in the case of `O=C(NO)c1ccc2c(=O)[nH]c(C(=O)NC3CCNCC3)nc2c1` [Compound I-278, N^7-hydroxy-4-oxo-N^2-piperidin-4-yl-3,4-dihydroquinazoline-2,7-dicarboxamide] it was 26.2%; in that of `O=C(NO)c1ccc2ccn(Cc3ccccn3)c(=O)c2c1` [Compound I-279, N-hydroxy-1-oxo-2-(pyridin-2-ylmethyl)-1,2-dihydroisoquinoline-7-carboxamide], 87.9%; in that of `O=C(NO)c1ccc2c(=O)n(-c3ccc(Cl)cc3)c(=O)[nH]c2c1` [Compound I-280, 3-(4-chlorophenyl)-N-hydroxy-2,4-dioxo-1,2,3,4-tetrahydroquinazoline-7-carboxamide], 20.9%.
Still for that read-out and setting: the figure for `O=C(NO)c1ccc2ccn(CCOc3cccc(C(F)(F)F)c3)c(=O)c2c1` [Compound I-282, N-hydroxy-1-oxo-2-{2-[3-(trifluoromethyl)phenoxy]ethyl}-1,2-dihydroisoquinoline-7-carboxamide] is 95.5%; for `O=C(NO)c1ccc2nc[nH]c(=O)c2c1` [Compound I-283, N-hydroxy-4-oxo-3,4-dihydroquinazoline-6-carboxamide] it is 63.3%; for `O=C(NO)c1ccc2c(=O)[nH]cnc2c1` [Compound I-284, N-hydroxy-4-oxo-3,4-dihydroquinazoline-7-carboxamide] it is 76.8%.
Consider `COc1ccc(CCn2ccc3ccc(C(=O)NO)cc3c2=O)cc1` [Compound I-285, N-hydroxy-2-[2-(4-methoxyphenyl)ethyl]-1-oxo-1,2-dihydroisoquinoline-7-carboxamide], for which the inhibition at 0.412 µM was 95.3%.
Same read-out and setting: the figure for `Cn1c(=O)[nH]c2cc(C(=O)NO)ccc2c1=O` [Compound I-286, N-hydroxy-3-methyl-2,4-dioxo-1,2,3,4-tetrahydroquinazoline-7-carboxamide] is 21.2%; for `Cn1ccc2ccc(C(=O)NO)cc2c1=O` [Compound I-287, N-hydroxy-2-methyl-1-oxo-1,2-dihydroisoquinoline-7-carboxamide] it is 67.6%; for `CC(C)(C)c1ccc(Cn2cnc3ccc(C(=O)NO)cc3c2=O)cc1` [Compound I-288, 3-(4-tert-butylbenzyl)-N-hydroxy-4-oxo-3,4-dihydroquinazoline-6-carboxamide] it is 94.9%.
As for `O=C(NO)c1ccc2ccn(Cc3ccc(-n4cccn4)cc3)c(=O)c2c1` [Compound I-289, N-hydroxy-1-oxo-2-[4-(1H-pyrazol-1-yl)benzyl]-1,2-dihydroisoquinoline-7-carboxamide], the inhibition at 0.412 µM came out at 96.7%.
Still for that read-out and setting: the figure for `O=C(NO)c1ccc2ccn(Cc3ccc4nonc4c3)c(=O)c2c1` [Compound I-290, 2-(2,1,3-benzoxadiazol-5-ylmethyl)-N-hydroxy-1-oxo-1,2-dihydroisoquinoline-7-carboxamide] is 98.5%.
